Several values for one entry are separate records, joined by “and”; a condition that tells them apart may be missing. Equal values may be shown once.
Experiments:
CYP2J2 = target: T1, CYP2J2 (Homo sapiens, UniProt P51589); experiment: Spectroscopic titration (Soret shift), CYP2J2; assay type: binding; conditions: CYP2J2, absence of CPR
T1 construct: His-tag; made in house; host or cells: E. coli DH-5α with pTGro7 plasmid
T1 sequence (P51589 1-502): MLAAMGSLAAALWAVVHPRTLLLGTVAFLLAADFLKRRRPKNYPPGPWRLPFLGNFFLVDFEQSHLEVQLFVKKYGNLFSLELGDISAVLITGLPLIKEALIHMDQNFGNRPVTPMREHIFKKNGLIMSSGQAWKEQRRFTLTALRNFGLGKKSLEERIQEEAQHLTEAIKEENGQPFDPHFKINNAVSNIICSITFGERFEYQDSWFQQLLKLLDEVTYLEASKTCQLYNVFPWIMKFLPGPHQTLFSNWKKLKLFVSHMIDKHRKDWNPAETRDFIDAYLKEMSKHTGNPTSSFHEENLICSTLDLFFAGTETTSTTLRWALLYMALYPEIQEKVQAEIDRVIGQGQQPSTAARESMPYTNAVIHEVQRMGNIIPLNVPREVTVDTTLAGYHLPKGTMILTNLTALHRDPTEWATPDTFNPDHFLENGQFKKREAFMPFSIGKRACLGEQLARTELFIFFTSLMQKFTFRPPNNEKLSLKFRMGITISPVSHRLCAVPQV
Procedure: CBC binding to various CYPs was determined by analyzing the Soret shift from ∼417 to ∼390 nm. CBC (stock 10 mM) was dissolved in ethanol and titrated with different CYPs at room temperature. Buffer-exchanged CYP2J2, CYP2D6, CYP3A4, and CYP2C8 (concentrations of proteins were kept between 4 and 5 μM) were dissolved in 0.1 M phosphate buffer (pH = 7.4), and initial spectra were recorded from 200 to 800 nm with a prominent peak at 417 nm. The concentration of CBC was varied from 0 to 100 μM keeping the final concentration of substrate in EtOH not more than 1% in cuvette. 0–4 μL of stock CBC was added using a Hamilton syringe in both the sample and blank cuvettes. The mixture was incubated for 5 min at 37 °C, and absorbance spectra were recorded using a Cary Bio 300 UV–vis spectrophotometer (Agilent Technologies, Santa Clara, CA). To eliminate the background absorbance, we derived the final spectra by […].

[1] = target: T2, CYP2C8 in the presence of CPR (Homo sapiens, UniProt P10632); experiment: Spectroscopic titration, CYP2C8–CPR complex; assay type: binding
T2 construct: His-tag; made in house; host or cells: E. coli DH-5α with pTGro7 plasmid (CYP)
T2 sequence (P10632 1-490): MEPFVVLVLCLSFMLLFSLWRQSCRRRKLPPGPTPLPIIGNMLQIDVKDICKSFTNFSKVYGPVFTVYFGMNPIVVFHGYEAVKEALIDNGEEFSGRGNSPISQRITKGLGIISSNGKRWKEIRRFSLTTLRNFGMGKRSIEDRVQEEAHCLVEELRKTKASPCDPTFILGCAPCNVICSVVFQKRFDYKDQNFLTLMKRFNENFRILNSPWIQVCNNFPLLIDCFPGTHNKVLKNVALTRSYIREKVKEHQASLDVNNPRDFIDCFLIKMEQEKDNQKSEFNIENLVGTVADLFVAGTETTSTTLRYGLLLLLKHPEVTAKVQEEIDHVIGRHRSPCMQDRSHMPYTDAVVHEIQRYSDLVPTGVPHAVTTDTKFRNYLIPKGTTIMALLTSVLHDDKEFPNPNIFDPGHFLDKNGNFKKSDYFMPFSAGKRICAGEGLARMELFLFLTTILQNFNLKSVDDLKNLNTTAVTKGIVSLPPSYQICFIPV
T2 sequence (P16435 1-677 partner): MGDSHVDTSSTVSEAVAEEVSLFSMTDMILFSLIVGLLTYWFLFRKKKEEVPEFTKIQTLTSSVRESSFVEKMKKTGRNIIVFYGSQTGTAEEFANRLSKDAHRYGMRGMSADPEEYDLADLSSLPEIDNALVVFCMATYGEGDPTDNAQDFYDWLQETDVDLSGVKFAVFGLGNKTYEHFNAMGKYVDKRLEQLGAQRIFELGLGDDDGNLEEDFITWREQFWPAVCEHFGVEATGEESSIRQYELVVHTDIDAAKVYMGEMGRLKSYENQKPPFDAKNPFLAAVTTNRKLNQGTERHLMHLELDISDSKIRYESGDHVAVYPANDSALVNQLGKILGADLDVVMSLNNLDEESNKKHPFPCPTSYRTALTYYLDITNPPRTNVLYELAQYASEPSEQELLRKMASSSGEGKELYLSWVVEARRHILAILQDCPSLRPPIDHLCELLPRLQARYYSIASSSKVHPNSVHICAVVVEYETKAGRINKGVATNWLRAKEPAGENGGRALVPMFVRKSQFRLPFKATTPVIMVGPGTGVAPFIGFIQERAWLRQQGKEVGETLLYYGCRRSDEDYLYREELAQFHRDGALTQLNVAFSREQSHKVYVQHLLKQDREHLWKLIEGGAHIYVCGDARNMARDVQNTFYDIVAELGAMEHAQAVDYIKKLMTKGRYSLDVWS
Procedure: (§1) For CBC titration to CYP–CPR complex, initially CYPs were dissolved in 400 μL of 0.1 M phosphate buffer (pH = 7.4) keeping the concentration between […]. Following this 50 μL of CPR (50 μM stock) was added to both cuvettes, and the final concentration of both of the proteins was 5–6 μM. Both proteins were initially mixed and incubated for 5 min followed by titration with CBC in the same process as mentioned above. The substrate-bound spectra were then subtracted from substrate-free spectra, and the extent of binding was analyzed using Origin Pro 2020.

[2] = target: T3, CYP2D6 in the presence of CPR (Homo sapiens, UniProt P10635); experiment: Spectroscopic titration, CYP2D6–CPR complex; assay type: binding
T3 construct: His-tag; made in house; host or cells: E. coli DH-5α with pTGro7 plasmid (CYP)
Procedure: as §1

CYP2C8 with CPR = target: T4, CYP2C8 with CPR (Homo sapiens, UniProt P10632); experiment: NADPH activity assay, CYP2C8 with CPR; assay type: biochemical; conditions: CYP2C8, CBC 50 μM vs substrate-free
T4 construct: His-tag; made in house; host or cells: E. coli DH-5α with pTGro7 plasmid (CYP)
T4 sequence (P10632 1-490): T2 sequence (P10632 1-490)
T4 sequence (P16435 1-677 partner): T2 sequence (P16435 1-677 partner)
Procedure: CYP-mediated NADPH oxidation was measured using kinetics mode in a Cary 300 UV–vis spectrometer (Agilent Technologies). 0.2 μM (final concentration) of CYP was taken in 0.1 M potassium phosphate buffer (pH 7.4) and incubated with 0.6 μM (final concentration) of CPR for 5 min with a reaction volume of 400 μL. The reaction was initiated with 200 μM of NADPH, and the absorption change was monitored over 10 min at 340 nm. The rate of NADPH consumption (or NADPH to NADP^+ conversion) was calculated by taking the molar extinction coefficient as 6.22 mM^–1 cm^–1 at 340 nm. To estimate the change in NADPH oxidation in the presence of CBC, both CYP and CPR were further incubated using CBC (final concentration 50 μM) for 5 min followed by measuring the change in absorbance at 340 nm as discussed earlier.

[3] = target: T5, CYP2J2 in the presence of CPR (Homo sapiens, UniProt P51589); experiment: Spectroscopic titration, CYP2J2–CPR complex; assay type: binding
T5 construct: His-tag; made in house; host or cells: E. coli DH-5α with pTGro7 plasmid (CYP)
T5 sequence (P51589 1-502): T1 sequence (P51589 1-502)
T5 sequence (P16435 1-677 partner): T2 sequence (P16435 1-677 partner)
Procedure: as §1

T3 sequence (P10635 whole entry, one chain of several): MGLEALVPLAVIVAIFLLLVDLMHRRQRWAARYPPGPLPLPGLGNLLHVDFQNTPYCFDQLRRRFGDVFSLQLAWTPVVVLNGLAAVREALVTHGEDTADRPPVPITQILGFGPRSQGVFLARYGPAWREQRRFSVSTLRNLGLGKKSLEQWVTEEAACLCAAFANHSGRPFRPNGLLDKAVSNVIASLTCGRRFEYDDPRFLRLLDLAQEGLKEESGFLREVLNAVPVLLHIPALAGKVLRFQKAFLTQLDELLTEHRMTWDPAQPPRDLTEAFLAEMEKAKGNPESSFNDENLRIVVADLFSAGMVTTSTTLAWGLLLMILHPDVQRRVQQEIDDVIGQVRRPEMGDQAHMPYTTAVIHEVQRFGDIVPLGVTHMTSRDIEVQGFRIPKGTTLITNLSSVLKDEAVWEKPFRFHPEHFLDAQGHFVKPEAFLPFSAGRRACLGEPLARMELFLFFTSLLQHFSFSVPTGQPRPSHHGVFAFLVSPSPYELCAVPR

CCCCCc1cc(O)c2c(c1)OC(C)(CCC=C(C)C)C=C2 (stereo not drawn) [CBC, Cannabichromene]
ΔAmax (spin state change due to heme perturbation) (CYP2J2): 0.04 ± 0.00 and ~0.04 | Kd (CYP2J2; read-out: Kd(app)): 3.06 µM and ~3 µM | ΔAmax (spin state change due to heme perturbation) [1]: 0.14 ± 0.00 and ~0.15 | Kd ([1]; read-out: Kd(app)): 8.23 µM and ~8 µM and < 10 µM | ΔAmax (spin state change due to heme perturbation) [2]: 0.04 ± 0.00 and 0.03–0.04 | Kd ([2]; read-out: Kd(app)): 3.12 µM and < 10 µM and ~3 µM | percentage increase of NADPH consumption in the presence of CBC (CYP2C8 with CPR): ~60% | ΔAmax (spin state change due to heme perturbation) [3]: 0.09 ± 0.00 and ~0.1 | Kd ([3]; read-out: Kd(app)): 1.19 µM and < 10 µM and ~1 µM

Source: PMC11061835, “Elucidating the Mechanism of Metabolism of Cannabichromene by Human Cytochrome P450s” (Journal of Natural Products, 2024)
